Experimental findings from EP4803080A1, “METHOD FOR TREATING LEUKEMIA” (Shenzhen TargetRx Co., Ltd., priority 2023, dated 2025) are described below.

“And” between values parts separate entries of the source, which are not always exact repeats. Equal entries are not always repeated. Where two headings read alike, the source gives them in different places.

The nature of data set [1]: Study of blood-brain ratio after single oral dose. In kind it is in vivo. The note with it: male SD rats. As to the method:
A total of 15 male SD rats (3 per time point) were administered a single oral dose of Compound A via oral gavage at 50 mg/kg, with the vehicle being 0.5% sodium carboxymethyl cellulose (CMC-Na). The animals were not fasted. Whole blood, cerebrospinal fluid, and brain tissue were collected at 0.5, 2, 4, 8, and 24 hours post-dose. Whole blood samples (about 0.3 mL) were collected via puncture of the jugular venous sinus and transferred to dipotassium ethylenediaminetetraacetate (K2EDTA) anticoagulant tubes, mixed thoroughly, placed on wet ice, and centrifuged within 30 minutes for 5 minutes (6000 rpm, 4°C) to obtain plasma. Cerebrospinal fluid (about 0.10 mL) was collected via puncture of the cerebellomedullary cistern and placed in collection tubes. Brain tissue samples were rinsed with saline, dried with filter paper, blood vessels were removed, and the weight was weighed and recorded. Brain tissue was homogenized with 9 times its weight of homogenization buffer (30% MeOH, containing 0.2% FA/70% 10 mM PBS). All samples were stored in a freezer at -80°C or lower until LC-MS analysis. PK parameters were calculated using the non-compartmental model in WinNonlin and the compound concentrations in each matrix.

Data set [2] relates to K562-luc human leukemia cells. The data set is described as follows: Pharmacodynamic study in animal model inoculated via the carotid artery with K562-luc cells (brain metastasis model). The note with it: 50 mg/kg p.o. qd.
Experimental: K562-luc tumor cells were cultured in IMDM medium containing 10% fetal bovine serum and 1500 ng/mL puromycin in an incubator at 37°C with 5% CO2. The medium was replaced every 2 to 3 days. The cells were subcultured when the confluence reaches 80% - 90%. Tumor cells in the logarithmic growth phase were used for in vivo tumor inoculation.
Test animals: NCG mice, 6-8 weeks old, female, all handled according to SOP. The animals were housed in an SPF facility accredited by AAALAC (Association for Assessment and Accreditation of Laboratory Animal Care), in a constant-temperature and constant-humidity laminar flow clean room, using individually ventilated cages (IVC). […]
The mouse was placed supine on a neck surgery board with the upper incisors hooked and both forelimbs abducted and fixed. […] Tumor growth was monitored once weekly using an in vivo imaging system. […]
For routine monitoring, not only tumor growth but also behavioral changes of the animals were observed, including animal movement, food and water consumption (by cage-side observation), body weight changes, whether the eyes/hair were glossy, and any other abnormal effects. Any deaths and/or clinical signs of abnormalities were recorded. […]
Statistical analysis: Statistical analysis between groups was performed using SPSS 16.0 software. Mean and standard error were calculated for all measured parameters according to the experimental design. […]
The mark [3] stands for this setting: PO 50 mg/kg single dose, 0.5 hr, individual rat, 50 mg/kg.
[4] abbreviates: PO 50 mg/kg single dose, 2 hr, individual rat, 50 mg/kg.
The mark [5] stands for this setting: PO 50 mg/kg single dose, 4 hr, individual rat, 50 mg/kg.
The mark [6] stands for this setting: PO 50 mg/kg single dose, 8 hr, individual rat, 50 mg/kg.
[7] abbreviates: PO 50 mg/kg single dose, 24 hr, individual rat, 50 mg/kg.

Turning to `O=C(Nc1ccc(OC(F)(F)Cl)cc1)c1cnc(N2CC[C@@H](F)C2)c(-c2cnccn2)c1` [Compound A, (R)-N-(4-(chlorodifluoromethoxy)phenyl)-6-(3-fluoropyrrolidin-1-yl)-5-(pyrazin-2-yl)nicotinamide], the “Brain Concentration (ng/g) Concentration” value was 302 ng/g and 381 ng/g in data set [1] (setting [3]); 1360 ng/g and 1070 ng/g in data set [1] (setting [4]); 1190 ng/g and 1310 ng/g in data set [1] (setting [5]); 452 ng/g and 1700 ng/g and 994 ng/g in data set [1] (setting [6]); 40.4 ng/g and 10.2 ng/g in data set [1] (setting [7]). Also, the “Brain/Blood Ratio Individual Value” in data set [1] (setting [3]) was 0.376 and 0.578; in data set [1] (setting [4]), 0.410 and 0.502; in data set [1] (setting [5]), 0.478 and 0.466; in data set [1] (setting [6]) it was 0.447 and 0.462; in data set [1] (setting [7]) it was 0.488 and 0.990. Also, the concentration at 0.5 h came to 415 ng/g in data set [1] (male, SD, rat, brain, po, 50 mg/kg, PO 50 mg/kg single dose, 0.5 hr, individual rat, read-out: Brain Concentration (ng/g) Concentration) and 366 ng/g in data set [1] (male, SD, rat, brain, po, 50 mg/kg, PO 50 mg/kg single dose, 0.5 hr, mean of 3 rats, read-out: Brain Concentration (ng/g) Mean). In addition, the concentration at 2 h in data set [1] (male, SD, rat, brain, po, 50 mg/kg, PO 50 mg/kg single dose, 2 hr, individual rat) was 961 ng/g. The concentration at 4 h in data set [1] (male, SD, rat, brain, po, 50 mg/kg, PO 50 mg/kg single dose, 4 hr, individual rat) was 880 ng/g. Further, the concentration at 24 h in data set [1] (male, SD, rat, brain, po, 50 mg/kg, PO 50 mg/kg single dose, 24 hr, mean (one rat NA)) is 16.9 ng/g. Further, the Kp at 0.5 h in data set [1] (male, SD, rat, brain/plasma, po, 50 mg/kg, PO 50 mg/kg single dose, 0.5 hr, individual rat) amounted to 0.624. In addition, the Kp at 2 h in data set [1] (male, SD, rat, brain/plasma, po, 50 mg/kg, PO 50 mg/kg single dose, 2 hr, individual rat) turned out to be 0.439. Moreover, the Kp at 4 h in data set [1] (male, SD, rat, brain/plasma, po, 50 mg/kg, PO 50 mg/kg single dose, 4 hr, individual rat) amounted to 0.374. The Kp at 8 h in data set [1] (male, SD, rat, brain/plasma, po, 50 mg/kg, PO 50 mg/kg single dose, 8 hr, individual rat) came to 0.511. The Kp in data set [1] (male, SD, rat, brain/plasma, po, 50 mg/kg, single oral dose 50 mg/kg, 0.5 to 24 hours, read-out: brain-to-plasma concentration ratio) lay within 0.44 to 0.74. Also, in data set [1] (rat, brain, single oral dose 50 mg/kg), the Cmax turned out to be 1130 ng/g. Further, the “AUC0-last in the brain” value in data set [1] (single oral dose 50 mg/kg) was 16346 ng·h/g. The “BLI signal intensity of brain tumors (fluorescent signal)” value in data set [2] (day 28 after dosing, versus control group, Fig. 8) is given as “significantly inhibited”. The body weight loss entry in data set [2] (during the treatment period) is on record as “did not show significant body weight loss”.

The term Cmax denotes the highest concentration seen after dosing.
